In patent publication US9737516B2, “Bicyclic heterocycles as bet protein inhibitors” (Incyte Corporation, priority 2013, dated 2017):
pIC50: −log10 of the molar value.

Key:
[1] = molecular target: BRD4-BD1 (Homo sapiens (Human), UniProt O60885); assay: BRD4 AlphaScreen assay (BRD4-BD1); assay type: binding; conditions: H4Ac4 peptide, 3.8 nM BRD4-BD1, read-out: BRD4 BD-1 enzyme IC50
Method: (§1) BRD4-BD1 and BRD4-BD2 assays were conducted in white 384-well polystyrene plate in a final volume of 20 μL for BD1 and 40 μL for BD2. Inhibitors were first serially diluted in DMSO and added to the plate wells before the addition of other reaction components. The final concentration of DMSO in the assay was 1.25% (BD1) and 0.83% (BD2). The assays were carried out at room temperature for 75 min. in the assay buffer (50 mM HEPES, pH 7.4, 100 mM NaCl, 0.05% CHAPS, 0.01% BSA), containing 50 nM Biotin-labeled tetra-acetylated histone H4 peptide (H4Ac4), 3.8 nM (BRD4-BD1, BPS Bioscience #31040) or 20 nM (BRD4-BD2, BPS Bioscience #31041). The reaction followed by the addition of 20 μL of assay buffer supplemented with Streptavidin donor beads (PerkinElmer 6760002) and GSH Acceptor beads (PerkinElmer-AL109C) at 4 µg/mL under reduced light. After plate sealing, the plate was incubated in the dark at room temperature for 75 min. before reading on a PHERAstar FS plate reader (BMG Labtech). IC50 determination was performed by fitting the curve of percent control activity versus the log of the inhibitor concentration using the GraphPad Prism 5.0 software. IC50 data for the Examples is presented in Table 1 as determined by Assay A1.

[2] = molecular target: BRD4-BD2 (Homo sapiens (Human), UniProt O60885); assay: BRD4 AlphaScreen assay (BRD4-BD2); assay type: binding; conditions: H4Ac4 peptide, 20 nM BRD4-BD2, read-out: BRD4 BD-2 enzyme IC50
Method: as §1

[3] = system: KMS.12.BM cells; assay: KMS.12.BM cell viability assay (ATP quantitation, Cell Titer-GLO); assay type: cell-based; conditions: Homo sapiens, 72 h, 3 days, concentration required for 50% cell death, read-out: KMS cellular IC50
Method: KMS.12.BM cell line (human myeloma) was purchased from JCRB (Osaka, Japan) and maintained in RPMI with 10% FBS culture medium. To measure the cytotoxic activity of the compounds through ATP quantitation, the KMS.12.BM cells are plated in the RPMI culture medium at 5000 cells/well/per 100 μL into a 96-well polystyrene clear black tissue culture plate (Greiner-bio-one through VWR, NJ), in the presence or absence of a concentration range of test compounds. After 3 days, […] Cell Titer-GLO Luminescent (Promega, Madison, Wis.) cell culture agent is added to each well for 10 minutes at room temperature to stabilize the luminescent signal. This determines the number of viable cells in culture based on quantitation of the ATP present, which signals the presence of metabolically active cells. Luminescence is measured with the Top Count 384 (Packard Bioscience through Perkin Elmer, Boston, Mass.). Compound inhibition is determined relative to cells cultured with no drug and the IC50 is reported as the compound concentration required for 50% cell death. IC50 data for the Examples is presented in Table 2 as determined by Assay B1.

[4] = system: C-myc in KMS.12.BM cells; assay: KMS.12.BM C-myc ELISA assay; assay type: cell-based; conditions: Homo sapiens, 2 hours
Method: KMS.12.BM cell line (human myeloma) was purchased from JCRB (Osaka, Japan) and maintained in RPMI with 10% FBS culture medium. To measure the C-myc inhibitory activity of the compounds, the KMS.12.BM cells are plated in the RPMI culture medium at 75000 cells/well/per 200 μL into a 96-well flat bottom polystyrene tissue culture plate (Corning through VWR, N.J.), in the presence or absence of a concentration range of test compounds. After 2 hours, cell are pelleted and lysed with Cell Extraction Buffer (BioSource, Carlsbad, Calif.) in the presence of protease inhibitors (Life Technologies, Grand Island, N.Y. and Sigma, St Louis, Mo.). Clarified lyses are tested in a C-myc commercial ELISA (Life Technologies, Grand Island, N.Y.). Compound inhibition is determined relative to cells cultured with no drug and the IC50 is reported as the compound concentration required for 50% C-myc inhibition. IC50 data for the Examples is presented in Table 3 as determined by Assay C1.

## CC(C)n1cnc2cc(-c3cn(C)c(=O)c4[nH]ccc34)c(OCC3CCC3)cc21 [Example 19, 4-[6-(cyclobutylmethoxy)-1-isopropyl-1H-benzimidazol-5-yl]-6-methyl-1,6-dihydro-7H-pyrrolo[2,3-c]pyridin-7-one]
[1]
  pIC50: ≥ 7.00
[2]
  pIC50: ≥ 7.00
[3]
  pIC50: ≥ 6.00
[4]
  pIC50: ≥ 6.00

## Cn1cc(-c2cc3[nH]c(N4CCCCC4)nc3cc2OCC2CCC2)c2cc[nH]c2c1=O [Example 20, 4-[5-(Cyclobutylmethoxy)-2-piperidin-1-yl-1H-benzimidazol-6-yl]-6-methyl-1,6-dihydro-7H-pyrrolo[2,3-c]pyridin-7-one]
[1]
  pIC50: ≥ 7.00
[2]
  pIC50: ≥ 7.00
[3]
  pIC50: ≥ 6.00
[4]
  pIC50: ≥ 6.00
